These results are taken from ChEMBL document CHEMBL1201862, “PubChem BioAssay data set” (2004).

The source made the active and inactive calls. Where only a bound is given, the exact number is not on record here.

Common to all, as to assay type: functional
Assay [1] addresses T1, Neuropeptides B/W receptor type 1 (Homo sapiens, UniProt P48145). Description: human NPBW1 receptor blockade, IC50 – cell-based, fluorescence, dose response, set 5, late-stage follow-up (AID 588566).
Assay [2] deals with T2, Melanin-concentrating hormone receptor 1 (Homo sapiens, UniProt Q99705). Description: Late-stage fluorescence-based counterscreen for antagonists of the G-protein coupled receptor 7 (GPR7): cell-based dose response assay to identify antagonists of the melanin-concentrating hormone receptor 1 (MCHR1) Set 5. On the technique in general: A counterscreen serves to expose hits that act by an unwanted route or on another target.
T2 sequence (Q99705 whole entry): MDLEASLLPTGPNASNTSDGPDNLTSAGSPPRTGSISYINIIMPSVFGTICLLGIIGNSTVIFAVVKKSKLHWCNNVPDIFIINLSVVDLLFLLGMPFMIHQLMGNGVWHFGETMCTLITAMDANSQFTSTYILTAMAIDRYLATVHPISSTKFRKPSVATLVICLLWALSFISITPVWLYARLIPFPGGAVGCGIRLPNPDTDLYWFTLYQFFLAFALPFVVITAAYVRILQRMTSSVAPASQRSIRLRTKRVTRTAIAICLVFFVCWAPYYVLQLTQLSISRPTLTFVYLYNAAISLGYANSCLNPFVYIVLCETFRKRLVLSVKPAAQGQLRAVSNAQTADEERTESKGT

The target in assay [3] is DNA dC->dU-editing enzyme APOBEC-3A (Homo sapiens, UniProt P31941). Kind of assay: SAR analysis of small molecule inhibitors of APOBEC3A DNA Deaminase via a fluorescence-based single-stranded DNA deaminase assay - Set 2. To be noted: read-out: IC50_Mean.
DNA dC->dU-editing enzyme APOBEC-3A, sequence (P31941 whole entry): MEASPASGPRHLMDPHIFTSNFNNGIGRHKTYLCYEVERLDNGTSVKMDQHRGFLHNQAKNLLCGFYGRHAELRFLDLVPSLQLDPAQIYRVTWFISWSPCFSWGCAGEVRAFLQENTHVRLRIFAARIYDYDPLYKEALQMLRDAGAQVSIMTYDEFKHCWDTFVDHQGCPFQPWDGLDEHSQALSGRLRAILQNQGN
The target in assay [4] is DNA dC->dU-editing enzyme APOBEC-3G (Homo sapiens, UniProt Q9HC16). Kind of assay: SAR analysis of small molecule inhibitors of APOBEC3G DNA Deaminase via a fluorescence-based single-stranded DNA deaminase assay - Set 2. To be noted: read-out: IC50_Mean.
DNA dC->dU-editing enzyme APOBEC-3G, sequence (Q9HC16 whole entry): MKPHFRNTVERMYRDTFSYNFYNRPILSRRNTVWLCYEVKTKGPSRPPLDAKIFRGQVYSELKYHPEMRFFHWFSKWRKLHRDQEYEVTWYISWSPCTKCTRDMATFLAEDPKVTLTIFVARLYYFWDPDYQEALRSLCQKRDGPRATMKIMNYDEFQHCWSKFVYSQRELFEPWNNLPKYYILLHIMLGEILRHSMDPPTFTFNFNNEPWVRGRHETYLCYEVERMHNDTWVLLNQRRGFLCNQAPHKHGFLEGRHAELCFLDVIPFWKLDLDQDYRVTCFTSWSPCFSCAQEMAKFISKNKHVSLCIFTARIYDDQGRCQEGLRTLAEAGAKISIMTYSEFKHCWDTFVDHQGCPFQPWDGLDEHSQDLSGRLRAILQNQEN
Assay [5] can be described thus: viability of uninfected HEp-2 cells – cell-based, HTS, cytotoxicity control for RSV inhibitor project, dose response (AID 2410). To be noted: human respiratory syncytial virus.
The target in assay [6] is Tyrosine-protein kinase SYK (Homo sapiens, UniProt P43405).
Assay [7] deals with Testis-specific serine/threonine-protein kinase 2 (Homo sapiens, UniProt Q96PF2).
Testis-specific serine/threonine-protein kinase 2, sequence (Q96PF2 whole entry): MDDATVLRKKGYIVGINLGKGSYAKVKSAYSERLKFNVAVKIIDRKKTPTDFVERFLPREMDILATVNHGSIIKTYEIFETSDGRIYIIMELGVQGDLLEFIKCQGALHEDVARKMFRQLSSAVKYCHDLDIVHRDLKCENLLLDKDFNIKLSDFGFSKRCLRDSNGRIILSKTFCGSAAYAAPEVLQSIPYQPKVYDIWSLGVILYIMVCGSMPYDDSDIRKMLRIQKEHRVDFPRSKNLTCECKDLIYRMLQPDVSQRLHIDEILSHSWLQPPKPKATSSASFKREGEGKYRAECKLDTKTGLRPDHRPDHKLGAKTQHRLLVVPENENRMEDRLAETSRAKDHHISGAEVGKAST
In assay [8] the target is Aurora kinase A (Homo sapiens, UniProt O14965).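 Also: value from the Navigating the Kinome kinase panel profiling, panel entry STK6.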
Aurora kinase A, sequence (O14965 whole entry): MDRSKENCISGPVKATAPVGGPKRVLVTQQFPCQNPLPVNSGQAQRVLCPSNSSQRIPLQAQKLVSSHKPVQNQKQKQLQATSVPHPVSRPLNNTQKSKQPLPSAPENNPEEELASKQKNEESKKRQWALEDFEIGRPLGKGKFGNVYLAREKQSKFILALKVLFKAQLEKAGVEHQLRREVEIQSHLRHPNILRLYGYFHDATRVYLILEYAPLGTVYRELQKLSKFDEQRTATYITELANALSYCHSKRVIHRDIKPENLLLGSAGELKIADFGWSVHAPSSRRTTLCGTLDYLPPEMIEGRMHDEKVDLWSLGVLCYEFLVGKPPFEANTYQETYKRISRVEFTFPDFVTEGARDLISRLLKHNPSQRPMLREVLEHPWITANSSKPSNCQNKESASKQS
Assay [9] concerns the target T3, Tyrosine-protein kinase JAK3 (Homo sapiens, UniProt P52333).
T3 sequence (P52333 whole entry): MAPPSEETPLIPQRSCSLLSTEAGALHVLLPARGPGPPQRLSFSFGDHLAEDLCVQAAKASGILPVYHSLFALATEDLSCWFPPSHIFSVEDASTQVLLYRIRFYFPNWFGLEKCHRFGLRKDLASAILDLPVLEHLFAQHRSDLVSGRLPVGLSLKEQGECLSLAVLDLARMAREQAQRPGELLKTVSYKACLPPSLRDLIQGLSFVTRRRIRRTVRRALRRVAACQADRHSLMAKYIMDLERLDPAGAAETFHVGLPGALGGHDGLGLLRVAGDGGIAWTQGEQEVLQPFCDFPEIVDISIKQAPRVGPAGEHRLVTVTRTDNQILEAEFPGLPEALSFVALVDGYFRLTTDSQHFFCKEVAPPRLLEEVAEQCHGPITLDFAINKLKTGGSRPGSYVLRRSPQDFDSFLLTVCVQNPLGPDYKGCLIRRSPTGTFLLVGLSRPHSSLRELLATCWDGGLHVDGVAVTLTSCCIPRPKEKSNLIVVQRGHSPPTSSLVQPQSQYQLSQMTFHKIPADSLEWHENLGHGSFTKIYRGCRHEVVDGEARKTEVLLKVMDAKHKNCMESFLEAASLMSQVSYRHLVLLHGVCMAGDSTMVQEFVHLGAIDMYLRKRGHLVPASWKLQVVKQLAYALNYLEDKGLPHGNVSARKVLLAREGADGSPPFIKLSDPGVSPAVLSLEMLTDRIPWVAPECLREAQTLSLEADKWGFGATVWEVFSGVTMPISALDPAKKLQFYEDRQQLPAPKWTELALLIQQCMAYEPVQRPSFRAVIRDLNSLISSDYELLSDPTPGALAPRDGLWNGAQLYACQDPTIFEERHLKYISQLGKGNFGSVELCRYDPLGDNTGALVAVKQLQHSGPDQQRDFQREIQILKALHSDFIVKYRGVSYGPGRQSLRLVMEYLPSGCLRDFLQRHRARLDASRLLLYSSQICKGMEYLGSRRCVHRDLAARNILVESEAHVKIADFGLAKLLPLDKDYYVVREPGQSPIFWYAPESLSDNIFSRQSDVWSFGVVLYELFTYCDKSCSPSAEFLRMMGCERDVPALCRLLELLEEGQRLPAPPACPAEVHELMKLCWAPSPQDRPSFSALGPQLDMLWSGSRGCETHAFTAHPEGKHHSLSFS

Assay [10] has as its target Tyrosine-protein kinase ITK/TSK (Homo sapiens, UniProt Q08881).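 Also: affinity for ITK measured as one member of a broad kinase panel profiling binding across the kinome.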
In assay [11] the target is Testis-specific serine/threonine-protein kinase 1 (Homo sapiens, UniProt Q9BXA7).
Testis-specific serine/threonine-protein kinase 1, sequence (Q9BXA7 whole entry): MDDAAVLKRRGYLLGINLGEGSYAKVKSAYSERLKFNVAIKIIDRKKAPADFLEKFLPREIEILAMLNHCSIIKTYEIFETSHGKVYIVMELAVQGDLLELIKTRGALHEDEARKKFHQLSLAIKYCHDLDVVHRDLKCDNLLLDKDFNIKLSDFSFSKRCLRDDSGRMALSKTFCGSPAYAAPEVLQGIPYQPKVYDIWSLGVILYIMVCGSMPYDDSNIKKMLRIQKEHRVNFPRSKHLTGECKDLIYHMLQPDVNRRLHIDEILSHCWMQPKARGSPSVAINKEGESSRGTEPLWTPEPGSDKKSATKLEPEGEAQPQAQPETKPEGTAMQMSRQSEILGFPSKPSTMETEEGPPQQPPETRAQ
Assay [12] deals with Mitogen-activated protein kinase 13 (Homo sapiens, UniProt O15264).
Mitogen-activated protein kinase 13, sequence (O15264 whole entry): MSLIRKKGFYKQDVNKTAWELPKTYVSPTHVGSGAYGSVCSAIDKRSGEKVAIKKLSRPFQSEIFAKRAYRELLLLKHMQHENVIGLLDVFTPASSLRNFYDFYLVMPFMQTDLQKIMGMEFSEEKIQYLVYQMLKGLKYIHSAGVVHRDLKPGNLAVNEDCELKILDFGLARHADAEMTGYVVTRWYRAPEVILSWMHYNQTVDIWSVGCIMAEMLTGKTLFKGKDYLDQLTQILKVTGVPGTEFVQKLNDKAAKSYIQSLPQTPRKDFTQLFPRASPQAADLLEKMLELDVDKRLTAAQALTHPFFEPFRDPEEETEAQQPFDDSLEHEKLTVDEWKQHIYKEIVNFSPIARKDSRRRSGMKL
Assay [13] addresses cAMP-dependent protein kinase catalytic subunit PRKX (Homo sapiens, UniProt P51817).
For assay [14], the target named is Focal adhesion kinase 1 (Homo sapiens, UniProt Q05397).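 Also: measured as one member of a kinome panel.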
Assay [15] has as its target Maternal embryonic leucine zipper kinase (Homo sapiens, UniProt Q14680).
Assay [16] addresses Tyrosine-protein kinase Fer (Homo sapiens, UniProt P16591).
The target of assay [17] is Serine/threonine-protein kinase pim-2 (Homo sapiens, UniProt Q9P1W9).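 Also: value comes from a broad kinase panel profiling study in which PIM2 was one of the panel members.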
Serine/threonine-protein kinase pim-2, sequence (Q9P1W9 whole entry): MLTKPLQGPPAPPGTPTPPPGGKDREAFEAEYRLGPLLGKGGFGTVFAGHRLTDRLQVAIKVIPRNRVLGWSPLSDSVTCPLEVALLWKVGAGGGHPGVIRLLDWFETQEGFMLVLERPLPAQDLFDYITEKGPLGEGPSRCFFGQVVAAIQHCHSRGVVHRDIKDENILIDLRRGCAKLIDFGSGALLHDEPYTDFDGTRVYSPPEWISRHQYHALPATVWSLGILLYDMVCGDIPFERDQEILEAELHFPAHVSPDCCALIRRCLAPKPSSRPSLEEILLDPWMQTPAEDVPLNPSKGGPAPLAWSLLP
Assay [18] addresses STE20-like serine/threonine-protein kinase (Homo sapiens, UniProt Q9H2G2).
Assay [19] deals with cAMP-dependent protein kinase catalytic subunit alpha (Homo sapiens, UniProt P17612).
Assay [20] in a line: reduction of Shn3 3'UTR-driven luciferase in osteoblasts – cell-based, Clone20 osteoblasts, firefly luciferase, cherry-picked, dose response (AID 624132).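 Also: firefly luciferase luminescence from reporter carrying the Shn3 3'UTR in osteoblasts.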
Assay [21] in a line: loss of viability in HepG2 cells – cell-based, CellTiter-Glo, cherry-picked, cytotoxicity control for Shn3 inhibitor project, dose response (AID 624134). For orientation: Cellular ATP, detected with luciferase, serves as a proxy for viable cell number.
Assay [22] in a line: non-specific 3'UTR reporter inhibition in Clone20-Shn3RL – cell-based, Renilla luciferase, cherry-picked, counter-screen for Shn3 inhibitor project, dose response (AID 624133).
Assay [23] has as its target T2, Melanin-concentrating hormone receptor 1. Description: Late-stage fluorescence-based counterscreen for antagonists of the G-protein coupled receptor 7 (GPR7): cell-based dose response assay to identify antagonists of the melanin-concentrating hormone receptor 1 (MCHR1) Set 6.
Assay [24] has as its target T1, Neuropeptides B/W receptor type 1. Kind of assay: human NPBW1 receptor blockade, IC50 – cell-based, fluorescence, dose response, set 6, late-stage follow-up (AID 588583).

T1 sequence (P48145 whole entry): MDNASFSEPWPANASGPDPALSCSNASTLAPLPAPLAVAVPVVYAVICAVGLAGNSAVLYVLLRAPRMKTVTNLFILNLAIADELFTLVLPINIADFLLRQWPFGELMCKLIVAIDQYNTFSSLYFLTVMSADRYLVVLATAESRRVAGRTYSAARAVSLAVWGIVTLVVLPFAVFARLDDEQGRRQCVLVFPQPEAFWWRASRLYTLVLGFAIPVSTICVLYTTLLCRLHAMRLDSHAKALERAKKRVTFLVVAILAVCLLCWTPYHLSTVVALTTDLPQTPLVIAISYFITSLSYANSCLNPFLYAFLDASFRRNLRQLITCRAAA
cAMP-dependent protein kinase catalytic subunit PRKX, sequence (P51817 whole entry): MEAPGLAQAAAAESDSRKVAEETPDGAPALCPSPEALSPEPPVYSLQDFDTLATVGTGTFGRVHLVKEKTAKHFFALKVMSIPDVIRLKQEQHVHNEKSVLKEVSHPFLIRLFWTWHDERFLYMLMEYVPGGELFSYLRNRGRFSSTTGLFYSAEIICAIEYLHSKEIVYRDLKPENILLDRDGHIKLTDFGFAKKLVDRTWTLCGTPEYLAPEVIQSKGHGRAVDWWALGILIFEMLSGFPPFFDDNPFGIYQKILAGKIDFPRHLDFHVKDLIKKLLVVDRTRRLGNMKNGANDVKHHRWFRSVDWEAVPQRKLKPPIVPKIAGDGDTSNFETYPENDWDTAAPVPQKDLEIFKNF
Tyrosine-protein kinase Fer, sequence (P16591 whole entry): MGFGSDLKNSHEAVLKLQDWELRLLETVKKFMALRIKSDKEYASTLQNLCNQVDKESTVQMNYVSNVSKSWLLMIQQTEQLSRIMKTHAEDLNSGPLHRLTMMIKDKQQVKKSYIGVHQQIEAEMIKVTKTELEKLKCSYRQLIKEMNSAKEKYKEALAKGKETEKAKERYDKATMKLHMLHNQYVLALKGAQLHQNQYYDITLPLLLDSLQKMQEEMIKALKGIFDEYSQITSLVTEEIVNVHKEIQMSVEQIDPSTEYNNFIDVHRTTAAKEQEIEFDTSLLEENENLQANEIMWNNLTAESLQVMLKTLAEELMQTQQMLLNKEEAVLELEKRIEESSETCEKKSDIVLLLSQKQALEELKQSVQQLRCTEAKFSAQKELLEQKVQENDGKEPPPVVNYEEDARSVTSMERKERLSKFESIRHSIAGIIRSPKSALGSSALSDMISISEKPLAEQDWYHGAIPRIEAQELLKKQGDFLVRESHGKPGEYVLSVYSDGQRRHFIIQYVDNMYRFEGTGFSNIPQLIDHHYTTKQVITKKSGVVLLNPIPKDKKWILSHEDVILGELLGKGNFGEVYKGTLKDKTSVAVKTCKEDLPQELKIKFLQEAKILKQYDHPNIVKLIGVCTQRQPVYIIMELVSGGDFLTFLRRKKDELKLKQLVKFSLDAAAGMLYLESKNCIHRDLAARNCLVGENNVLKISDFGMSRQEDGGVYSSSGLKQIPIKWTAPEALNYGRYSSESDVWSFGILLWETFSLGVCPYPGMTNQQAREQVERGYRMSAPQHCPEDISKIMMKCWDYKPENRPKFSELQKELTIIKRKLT
Tyrosine-protein kinase ITK/TSK, sequence (Q08881 whole entry): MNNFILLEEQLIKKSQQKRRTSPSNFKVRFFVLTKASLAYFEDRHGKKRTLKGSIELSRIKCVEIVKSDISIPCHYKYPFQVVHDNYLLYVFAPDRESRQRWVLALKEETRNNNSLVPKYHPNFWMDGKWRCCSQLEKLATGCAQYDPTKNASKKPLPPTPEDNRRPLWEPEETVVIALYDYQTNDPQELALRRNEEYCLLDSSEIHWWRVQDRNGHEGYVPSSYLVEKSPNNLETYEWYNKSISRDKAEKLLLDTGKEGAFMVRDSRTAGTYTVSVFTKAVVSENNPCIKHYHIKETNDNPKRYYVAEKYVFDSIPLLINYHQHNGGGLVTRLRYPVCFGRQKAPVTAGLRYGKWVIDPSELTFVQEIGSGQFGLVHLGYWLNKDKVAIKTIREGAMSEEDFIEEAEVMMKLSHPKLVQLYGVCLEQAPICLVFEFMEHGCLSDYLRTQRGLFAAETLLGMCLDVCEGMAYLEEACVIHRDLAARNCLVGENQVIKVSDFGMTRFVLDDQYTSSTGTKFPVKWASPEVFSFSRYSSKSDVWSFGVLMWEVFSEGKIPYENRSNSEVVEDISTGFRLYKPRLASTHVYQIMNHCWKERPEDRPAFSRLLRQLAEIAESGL

For `Cn1ccc2ccc(Oc3c(Cl)cnn(Cc4cccc5ccccc45)c3=O)cc21`, the IC50 is 3190 nM (active) in assay [1] and > 20000 nM (inactive) in [2].

As for `CSc1nnc2n(CCC(C)C)c(=O)c3ccccc3n12`, the IC50 in assay [3] and in assay [4] was > 99000 nM (inactive) each time.

The CC50 is the concentration that lowers cell viability or growth by half. Usually Ki stands for the dissociation constant of the complex between target and ligand, obtained from inhibition or displacement. The term AC50 denotes the concentration giving half of the maximal activity seen. With `Cc1ccc(-c2nn(C(C)(C)C)c3ncnc(N)c23)cc1`, in [5], the CC50 was 9910 nM (active). The Ki in assay [6], in [7], in assay [8], in assay [9], in [10] and in assay [11] was > 1580 nM (inactive) in each case. Also, the Ki in assay [12] was > 7940 nM (inactive); in assay [13], > 1580 nM (inactive); in [14] it was > 1580 nM (inactive); in assay [15], > 1580 nM (inactive); in [16] it was > 1580 nM (inactive); in [17] it was > 1580 nM (inactive). In addition, the Ki in assay [18] and in assay [19] was 1580 nM (active) in each case. Besides, the AC50 is 5890 nM (active) in [20], > 70000 nM (inactive) in assay [21] and 1970 nM (active) in assay [22].

For the compound `COc1ccc(Oc2c(Cl)cnn(Cc3ccccc3C(=O)O)c2=O)cc1`, the IC50 in [23] and in [24] was > 20000 nM (inactive) each time.
